Laboratory results taken from patent US20260083865A1, “PROSTATE SPECIFIC MEMBRANE ANTIGEN (PSMA) LIGANDS AND USE THEREOF” (priority 2022, published 2026).
Where two headings read alike, the source gives them in different places. Numbered stars: 1 amine (or outer) side, 2 acyl side, 3 side chain; on linkers, the order of the positions; unused ones are H or OH. Bridge positions count the residues as written; N and C are the ends. Square brackets hold non-standard residues; d marks the D form. Peptide text beside a SMILES is read from it. * marks the point of attachment. DOTA = O=C(O)CN1CCN(CC(=O)O)CCN(CC(=O)*)CCN(CC(=O)O)CC1; Phe(4-Cl) = N[C@@H](Cc1ccc(Cl)cc1)C(=O)O; Arg(Me) = CNC(=N)NCCC[C@H](N)C(=O)O; Ethylenediamine = C(CN[*:2])N[*:1]; X1 = O=C(CC1CCN([*:1])CC1)[*:2]; Lys(Me) = CNCCCC[C@H](N)C(=O)O; Tle = CC(C)(C)[C@H](N)C(=O)O; Aib = CC(C)(N)C(=O)O

Experiments:
recombinant human PSMA = molecular target: T1, recombinant human PSMA (Homo sapiens, UniProt Q04609); assay: Enzyme inhibition assay (GCPII Inhibitor Screening Kit, fluorescence-based); assay type: biochemical; details: carboxypeptidase activity of recombinant human PSMA; highest final concentration 1 μM
T1 construct: purchased BioVision K440-100
T1 sequence (Q04609 whole entry): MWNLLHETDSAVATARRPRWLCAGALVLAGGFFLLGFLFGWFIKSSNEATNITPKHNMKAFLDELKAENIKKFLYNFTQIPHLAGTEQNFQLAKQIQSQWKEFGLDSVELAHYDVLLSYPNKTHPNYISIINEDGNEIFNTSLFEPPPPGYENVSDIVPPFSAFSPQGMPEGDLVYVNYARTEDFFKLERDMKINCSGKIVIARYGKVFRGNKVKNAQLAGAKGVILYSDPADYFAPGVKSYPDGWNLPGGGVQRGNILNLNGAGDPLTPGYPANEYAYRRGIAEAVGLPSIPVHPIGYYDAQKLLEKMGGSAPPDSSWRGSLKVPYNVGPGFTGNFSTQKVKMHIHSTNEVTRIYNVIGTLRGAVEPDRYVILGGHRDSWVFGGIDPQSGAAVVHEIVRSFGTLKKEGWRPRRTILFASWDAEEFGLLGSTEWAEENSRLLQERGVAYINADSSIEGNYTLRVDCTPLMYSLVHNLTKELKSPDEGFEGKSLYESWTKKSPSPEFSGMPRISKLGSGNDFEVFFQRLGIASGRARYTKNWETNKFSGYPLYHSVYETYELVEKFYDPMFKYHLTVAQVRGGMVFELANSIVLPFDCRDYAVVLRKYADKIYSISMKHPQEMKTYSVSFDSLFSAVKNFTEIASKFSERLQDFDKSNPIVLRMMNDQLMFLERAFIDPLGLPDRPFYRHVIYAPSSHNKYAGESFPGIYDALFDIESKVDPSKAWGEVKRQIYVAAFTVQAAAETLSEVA
Procedure: This peptidase activity hydrolyzes γ-peptide bonds between N-acetyl amino acid and glutamate of its substrate.
The carboxypeptidase inhibition of recombinant human PSMA by test compounds was assessed using a commercial fluorescence-based PSMA activity inhibition assay.
The employed Glutamate Carboxypeptidase II (GCPII) Inhibitor Screening Kit (BioVision, Cat #K440-100) is a fluorescence-based, enzymatic in vitro assay to measure the potency of PSMA inhibitors. The provided substrate is […] in the presence of PSMA producing glutamate. The detection system is based on an enzymatic reaction in which a fluorogenic probe is reduced, generating a stable signal.
For the assay, recombinant human PSMA was diluted in GCPII Assay Buffer as recommended in the assay protocol. Serial dilutions of the test compounds were prepared, starting from 10 μM (final reaction concentration of 1 μM). In a 96-well assay plate, 40 μL of the PSMA working solution was mixed with 30 μL of GCPII Assay Buffer. Next, 10 μL of the serially diluted test compounds were added. The mixture was incubated for 20 min at 37° C. Subsequently, 20 μL of a reaction mix solution was added. The fluorescence signal increased due to fluorophore reduction, which is directly proportional to the produced amount of glutamate, was measured in kinetic mode for 90 minutes at 37° C. in a SpectraMax M5 plate reader. RFU/see was assessed by the SoftMax Pro software and plotted against peptide concentrations. Four-parameter logistic (4PL) curve fitting and pIC50 calculations were performed using the GraphPad Prism software.

PC3-PIP tumor model = test system: PC3-PIP tumor model; parameters: species or system mice; details: mouse, in vivo
Procedure, shortened: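 Male nude mice bearing shoulder xenografts (5×10^6 PC3-PIP cells, or 5×10^6 or 1×10^7 C4-2 cells) received ~30 MBq of ^111In-labeled compound intravenously via tail vein. SPECT/CT regions of interest for heart, kidney and tumor gave % ID/g, mean of two to three animals per time point, range as error.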

[1] = molecular target: T2, Fc-fusion protein of human PSMA (hPSMA-Fc) (Homo sapiens, UniProt Q04609); assay: Surface plasmon resonance assay (Biacore T200, single cycle kinetic); assay type: binding; details: hPSMA-Fc, 25° C., read-out: pKD CAT (converted)
T2 construct: purchased Acro Biosystems PSA-H5264
T2 sequence (Q04609 44-750 limits assumed): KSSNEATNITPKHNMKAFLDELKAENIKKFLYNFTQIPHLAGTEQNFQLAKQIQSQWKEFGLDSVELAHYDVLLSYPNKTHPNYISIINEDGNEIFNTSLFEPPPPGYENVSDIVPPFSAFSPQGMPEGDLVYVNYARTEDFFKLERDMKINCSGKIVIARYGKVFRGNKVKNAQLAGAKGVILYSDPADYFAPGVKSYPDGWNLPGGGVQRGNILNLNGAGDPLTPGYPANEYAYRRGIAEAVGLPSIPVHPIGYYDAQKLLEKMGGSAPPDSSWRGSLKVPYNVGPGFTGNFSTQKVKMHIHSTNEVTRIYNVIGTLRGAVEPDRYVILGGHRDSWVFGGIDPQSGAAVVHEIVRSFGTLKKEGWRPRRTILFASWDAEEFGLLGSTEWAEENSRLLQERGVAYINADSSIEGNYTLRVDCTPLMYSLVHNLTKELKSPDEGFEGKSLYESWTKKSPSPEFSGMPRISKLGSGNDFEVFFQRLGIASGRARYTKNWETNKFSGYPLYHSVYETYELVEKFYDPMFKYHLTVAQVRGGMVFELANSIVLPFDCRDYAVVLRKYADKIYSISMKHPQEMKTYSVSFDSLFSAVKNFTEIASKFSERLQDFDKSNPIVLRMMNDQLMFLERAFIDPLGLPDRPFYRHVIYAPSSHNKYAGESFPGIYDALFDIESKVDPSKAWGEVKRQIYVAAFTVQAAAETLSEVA
Procedure, shortened: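 hPSMA-Fc was captured (~1000 RU) on an Fc-binding-peptide CM5 chip, and compounds were run in single cycle kinetic mode at 25° C in HBST with 0.1% DMSO. Double-blank-corrected sensorgrams were fitted to a 1:1 Langmuir model to give KD, reported as pKD.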

[2] = molecular target: T3, PSMA-expressing C4-2 cells (Homo sapiens, UniProt Q04609); assay: FACS binding assay (competition with 50 nM PSM-0183); details: C4-2 cells, read-out: pIC50 [C4-2] CAT (converted)
T3 construct: PSMA-expressing C4-2 cells (ATCC, Cat. No. CRL-3314) were cultured in RPMI-1640; host or cells: C4-2 cells
T3 sequence (Q04609 whole entry): as the sequence (Q04609 whole entry) above
Procedure, shortened: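 C4-2 cells were incubated 1 h at 4 °C with 50 nM AF488-labelled peptide PSM-0183 plus increasing test compound concentrations, then washed twice in ice-cold buffer. Median fluorescence in the AF488 channel was read by flow cytometry. IC50/pIC50 was derived by 4PL fitting of MFI versus concentration.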

[3] = pKD category for PSMA SPR activity assay

IC50 (recombinant human PSMA) | AUC ratio [T/K] (PC3-PIP tumor model) | Tumor AUC (PC3-PIP tumor model) | Kd ([1]; SPR, single cycle kinetic, category) | IC50 ([2]; FACS binding, competition with 50 nM PSM-0183, category) | Kd [1, 3] | IC50 ([2]; pIC50 category of FACS binding) | Structure (SMILES)
> 1 µM | 6.7 | 180 % ID/g*h | < 0.0126 µM | < 0.2 µM |  |  | CNCCCC[C@@H]1NC(=O)[C@@H](NC(=O)[C@H](Cc2ccc(Cl)cc2)NC(=O)C(C)(C)NC(=O)[C@@H](NC(=O)CC2CCN(C(=O)CN3CCN(CC(=O)O)CCN(CC(=O)O)CCN(CC(=O)O)CC3)CC2)[C@@H](C)O)CSSC[C@@H](C(=O)N[C@H](C(=O)N[C@H](C(N)=O)[C@@H](C)O)C(C)(C)C)NC(=O)[C@H](CC(N)=O)NC(=O)C(C)(C)NC(=O)[C@H](CCCNC(=N)NC)NC1=O [PSM-0194, DOTA-Cmp-Thr-Aib-Pcf-[Cys-Lys(Me)-Arg(Me)-Aib-Asn-Cys]-Tle-Thr-NH2] ({DOTA}-[X1]T[Aib][Phe(4-Cl)]C[Lys(Me)][Arg(Me)][Aib]NC[Tle]T-NH2; disulfide 5-10)
> 1 µM | 1.6 | 170 % ID/g*h |  |  | < 0.0126 µM | < 0.2 µM | C[C@@H](O)[C@H](NC(=O)[C@@H](NC(=O)[C@@H]1CSSC[C@H](NC(=O)[C@H](Cc2ccc(Cl)cc2)NC(=O)C(C)(C)NC(=O)[C@@H](NC(=O)CC2CCN(C(=O)CN3CCN(CC(=O)O)CCN(CC(=O)O)CCN(CC(=O)O)CC3)CC2)[C@@H](C)O)C(=O)N[C@@H](CCCCN)C(=O)N[C@@H](CCCNC(=N)N)C(=O)N[C@@H](CCC(=O)O)C(=O)N[C@@H](CC(N)=O)C(=O)N1)C(C)(C)C)C(N)=O [PSM-0416, DOTA-Cmp-Thr-Aib-Pcf-[Cys-Lys-Arg-Glu-Asn-Cys]-Tle-Thr-NH2] ({DOTA}-[X1]T[Aib][Phe(4-Cl)]CKRENC[Tle]T-NH2; disulfide 5-10)
> 1 µM |  |  |  |  | < 0.0126 µM | < 0.2 µM | CC(=O)NC(C)(C)C(=O)N[C@@H](Cc1ccc(Cl)cc1)C(=O)N[C@H]1CSSC[C@@H](C(=O)N[C@H](C(N)=O)C(C)(C)C)NC(=O)[C@H](CC(N)=O)NC(=O)C(C)(C)NC(=O)[C@H](CCCNC(=N)N)NC(=O)[C@H](CCCCN)NC1=O [PSM-0424, Ac-Aib-Pcf-[Cys-Lys-Arg-Aib-Asn-Cys]-Tle-NH2] (Ac-[Aib][Phe(4-Cl)]CKR[Aib]NC[Tle]-NH2; disulfide 3-8)
> 1 µM | 1.4 | 250 % ID/g*h |  |  | < 0.0126 µM | < 0.2 µM | CC(=O)NC(C)(C)C(=O)N[C@@H](Cc1ccc(Cl)cc1)C(=O)N[C@H]1CSSC[C@@H](C(=O)N[C@H](C(=O)NCCNC(=O)CN2CCN(CC(=O)O)CCN(CC(=O)O)CCN(CC(=O)O)CC2)C(C)(C)C)NC(=O)[C@H](CC(N)=O)NC(=O)C(C)(C)NC(=O)[C@H](CCCNC(=N)N)NC(=O)[C@H](CCCCN)NC1=O [PSM-0516, Ac-Aib-Pcf-[Cys-Lys-Arg-Aib-Asn-Cys]-Tle-en-DOTA] (Ac-[Aib][Phe(4-Cl)]CKR[Aib]NC[Tle]-{Ethylenediamine-DOTA}; disulfide 3-8)
